Where “and” joins values, the source holds several entries; their conditions need not be identical. Identical values can stand only once.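 Each compound was tested at five concentrations against cells in 96-well plates for 48 hours. GI50 is the concentration that inhibits growth by half. TGI marks complete inhibition of growth.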
Key:
Experiment in all cases: inhibition of tumour cell growth, NCI panel, 48 h
NCI-H460 lung = system: NCI-H460 lung
SF-295 CNS = system: SF-295 CNS
M14 melanoma = system: M14 melanoma
NCI/ADR-RES ovarian = system: NCI/ADR-RES ovarian
NCI-H522 lung = system: NCI-H522 lung
DU-145 prostate = system: DU-145 prostate
MALME-3M melanoma = system: MALME-3M melanoma
HCT-15 colon = system: HCT-15 colon
UO-31 renal = system: UO-31 renal
K-562 leukemia = system: K-562 leukemia

Row | SMILES | TGI (NCI-H460 lung) | TGI (SF-295 CNS) | TGI (M14 melanoma) | TGI (NCI/ADR-RES ovarian) | TGI (NCI-H522 lung) | TGI (DU-145 prostate) | TGI (MALME-3M melanoma) | TGI (HCT-15 colon) | TGI (UO-31 renal) | TGI (K-562 leukemia) [µM] | GI50 (NCI-H460 lung) | GI50 (SF-295 CNS) | GI50 (M14 melanoma) | GI50 (NCI/ADR-RES ovarian) | GI50 (NCI-H522 lung) | GI50 (DU-145 prostate) | GI50 (MALME-3M melanoma) | GI50 (HCT-15 colon) | GI50 (UO-31 renal) | GI50 (K-562 leukemia) [µM]
1 | CN(C)CCOc1ccc2c(c1)C/C(=C/c1ncc([N+](=O)[O-])n1C)C2=O | 4.05 µM | 20.3 µM | 5.71 µM | 34.1 µM | 3.02 µM | 14 µM | 5.23 µM | 3.92 µM | 3.61 µM | > 20 | – | – | – | – | – | – | – | – | – | –
2 | CC(CNC(Cc1ccccc1)c1ccccc1)NC(Cc1ccccc1)c1ccccc1 (stereo unspecified) | 4.06 µM | 3.27 µM | 3.6 µM | 4.17 µM | 3.5 µM | 14.7 µM | 3.36 µM | 4.87 µM | 6.06 µM | 6.41 | 2.03 µM | 1.52 µM | 1.79 µM | 1.83 µM | 1.63 µM | 3.95 µM | 1.68 µM | 2 µM | 1.87 µM | 2.48
3 | Cc1cc(C(C#N)c2ccc(Cl)cc2)c(Cl)cc1NC(=O)c1cc(I)cc(I)c1O (stereo unspecified) | 28.5 µM and 46.3 µM | 14.7 µM and 30.1 µM | 29.9 µM and 34.2 µM | 28.9 µM and 54.2 µM | 10.5 µM and 47.2 µM | 28.7 µM and 29.1 µM | 20.2 µM and 27.5 µM | 19.8 µM and 31.7 µM | 31.4 µM and 35.1 µM | 47.5 | 4.87 µM and 19.5 µM | 3.22 µM and 10.9 µM | 14.7 µM and 16.3 µM | 4.03 µM and 15.7 µM | 3.48 µM and 17.8 µM | 14.5 µM and 15.2 µM | 4.93 µM and 10.4 µM | 5.25 µM and 15.8 µM | 14.7 µM and 14.8 µM | 15.5
4 | CCOc1ccc(NCc2cc(OC)c(OC)c(OC)c2)cc1 | > 100 µM and 58 µM | 3.44 µM | > 100 µM | > 100 µM | 1.78 µM and 2.55 µM | > 100 µM | > 100 µM | 45.9 µM and 32.7 µM | > 100 µM | > 63.1 | – | – | – | 0.569 µM | – | – | – | – | – | –
5 | CN(C)C(=S)N=Nc1c(O)[nH]c2ccccc12 | 2.49 µM | 14.2 µM | 9.41 µM | 2.15 µM | 11 µM | 11.4 µM | 14.2 µM | 23.4 µM | 6.03 µM | > 57.8 | 0.374 µM | 0.315 µM | 0.484 µM | 0.334 µM | 0.355 µM | 0.955 µM | 1.75 µM | 0.455 µM | 0.384 µM | 0.475
6 | C=C1C(=O)O[C@H]2[C@H]1CC/C(COC(=O)N1CCC[C@H]1C(=O)Nc1ccc(OC)c(C(N)=O)c1O)=C\CC[C@@]1(C)O[C@@H]21 | 29 µM | 27.4 µM | 4.19 µM | > 100 µM | 4.07 µM | 14.5 µM | 6.54 µM | 17.2 µM | 8.97 µM | 10.2 | 11.4 µM | 12.1 µM | 1.89 µM | 61 µM | 1.68 µM | 3.95 µM | 2.42 µM | 4.34 µM | 2.11 µM | 2.43
7 | CC(=O)Nc1ccc2c(c1)oc(=O)c1cc(NC(C)=O)ccc12 | > 100 µM | > 100 µM | > 100 µM | > 100 µM | > 100 µM | > 100 µM | > 100 µM | > 100 µM | > 100 µM | > 100 | > 100 µM | > 100 µM | 91.6 µM | > 100 µM | 55.7 µM | > 100 µM | 35.6 µM | > 100 µM | > 100 µM | > 100
8 | Cc1cc2c3ccccc3n(C)c2c2c1C(=O)C=CC2=O | 33.2 µM | 54.3 µM | 31.9 µM | > 100 µM | 31.8 µM | 44.5 µM | 45.7 µM | 29.2 µM | 46.4 µM | > 74 | – | – | – | – | – | – | – | – | – | –
9 | O=C1/C(=C/c2ccc(O)cc2)COc2ccc(-c3ccccc3)cc21 | 15.8 µM | 24.7 µM | 39.1 µM | 53.9 µM | 16.4 µM | 14.6 µM | 30.6 µM | 12.4 µM | 23.4 µM | > 39.3 | 3.73 µM | 6.8 µM | 12.2 µM | 10.9 µM | 2.93 µM | 4.09 µM | 8.38 µM | 2.89 µM | 4.64 µM | 2.57
10 | CC(=O)[O-].CC(=O)[O-].[NH2-].[Pt+2].c1ccc2cnccc2c1 | > 100 µM | > 100 µM | > 100 µM | > 100 µM | 24.9 µM | 64.2 µM | > 100 µM | 45.8 µM | 97.5 µM | 51.8 | 26.2 µM | > 100 µM | 59.1 µM | 64.4 µM | 12.4 µM | 12.2 µM | 12.9 µM | 16.9 µM | 22.9 µM | 15.6
